# Measured values as given in patent US12063929B2, “3′-alkynyl abscisic acid derivatives as ABA antagonists” (University of Saskatchewan, priority 2018, dated 2024).
# Experiments:
# Format in all cases: in vivo
# [1] = test system: RIL from L. culinaris var Redberry x L. culinaris ssp. orientalis IG72595; assay: Lentil RIL germination, emergence and time to flowering (F5-F7, F7 experiment)
# Description: • DSTG=Days from seeding to germination • DSTE=Days from seeding to Emergence • DSTF=Days from seeding to flowering • DSTH=Days from seeding to harvesting of first seed (F7 was not included because the purpose of this generation was to harvest as many seeds as possible) • GA3=gibberellic acid • DMSO=solvent required for dissolving 1019-ABA F7 Experiment
# Objective: Testing the effect of soaking seeds of the F7 generation in four solutions listed below.
# Treatments: water, DMSO, 1019-ABA, and 1019-ABA for 1 day followed by 100 μM GA3
# Plant material: Seeds derived from a cross between L. culinaris var Redberry and L. culinaris ssp. orientalis IG72595
# Experimental set up: 207 RIL-lines in total; 4 seeds (repetitions) per line; 4 treatments
# Data collection: Days from seeding to germination (DSTG), days from seeding to emergence (DSTE), and Days from seeding to first flower were counted. Days from seeding to first harvest was not determined because we needed as many seeds as possible in this generation.
# Days to germination (DSTG), emergence (DSTE), time to flowering (DSTF) and first harvest (DSTH) were determined during the development of a recombinant inbred line (RIL) developed from a cross between L. culinaris var Redberry and L. culinaris ssp. orientalis IG72595. The aim of the project was to find and incorporate Aphanomyces root rot resistance into the cultivated lentil, and the L. orientalis accession was identified with improved resistance. During the development of this RIL line speed breeding techniques were applied i.e. warmer temperatures, longer day length, higher light intensity, restricted pot volume etc. In generation F5, the exemplary compound became available and was tested on germination and emergence. […] The F7 generation was set up as a proper experiment with four treatments i.e. 1019, water, DMSO (solvent needed for dissolving exemplary compound 1019), and exemplary compound 1019 for one day followed by 100 μM GA3 (FIG. 12).
# rice = assay: Rice radical elongation assay; details: 10 μM 1019 alone, 4.5 days post treatment (FIG. 11A)
# Protocol: Seeds were surface sterilized by incubation in 10% bleach for 20 min with shaking, then rinsed four times with sterile water. Four ml of test solutions were pipetted into petri dishes (100×15 mm) that contain a single filter paper. Fifteen seeds were added to each dish. For rice, barely, and wheat, the experiment involved five treatments (5 μM ABA; 5 μM ABA+10 μM 1019; 10 μM 1019; water control; water+EtOH+NaOH control), with three replications per treatment. For sorghum, treatments were 10 μM ABA; 10 μM ABA+20 μM 1019; 20 μM 1019; water control; water+EtOH+NaOH control. Dishes were sealed with Parafilm, and incubated in the dark at room temperature. Radical length was measured daily post emergence using ImageJ software; shown are 3 days post treatment for barley, wheat and sorghum and 4.5 days post treatment for rice.
# Hard Red Spring wheat = Hard Red Spring wheat seedling growth (root and shoot length)
# Protocol: For each treatment 3 replicates of 10 seeds were plated into petri dishes lined with two filter papers and 10 mL of test solution. The covered dishes were stored at room temperature in the dark. At 72 hours, germinated seeds were scored for root length and shoot length. The following dosages were used when studying the effect of the exemplary ABA analogues of the application on wheat shoot and root growth: control 1% DMSO. 10 μM ABA, 10 μM 1019, 100 μM exemplary compound 1019, 10 μM exemplary compound 1019 plus 10 μM ABA […] and 100 μM exemplary compound 1019 plus 10 μM ABA […].
# [2] = F7 experiment, 207 lines (Table 2)
# [3] = generation F7, 819 seeded (Table 1)
smiles,measurement,setting,value
"CC1=C(C#Cc2ccccc2)C(=O)CC(C)(C)[C@@]1(O)/C=C/C(C)=C\C(=O)O [Compound 1019, (2Z,4E)-5-((S)-1-Hydroxy-2,6,6-trimethyl-4-oxo-3-(phenylethynyl)cyclohex-2-en-1-yl)-3-methylpenta-2,4-dienoic acid]",emergence rate,[1]; F7 experiment,100%
same,% Germ.,[1]; [2],99%
same,Germ. (number of seeds germinated),[1]; [2],807
same,% Germ.,"[1]; F7 experiment, 207 lines (Table 2), listed as 1019-ABA",98.9%
same,seeds emerged,"[1]; F7 experiment, four days after seeding (FIG. 12B)",81%
same,days earlier flowering than water treatment,"[1]; F7 experiment, on average",4 days
same,DSTE (days from seeding to emergence),[1]; generation CVF6,4.03 days
same,DSTF (days from seeding to flowering),[1]; generation CVF6,26.14 days
same,DSTG (days from seeding to germination),[1]; generation CVF6,1.12 days
same,DSTH (days from seeding to harvesting of first seed),[1]; generation CVF6,44.02 days
same,Emerged (number of seeds emerged),"[1]; generation CVF6, 226 seeded",226
same,Germ. (number of seeds germinated),"[1]; generation CVF6, 226 seeded",226
same,DSTE (days from seeding to emergence),[1]; generation F5,4.93 days
same,DSTF (days from seeding to flowering),[1]; generation F5,28.22 days
same,DSTG (days from seeding to germination),[1]; generation F5,2.18 days
same,DSTH (days from seeding to harvesting of first seed),[1]; generation F5,45.41 days
same,Emerged (number of seeds emerged),"[1]; generation F5, 231 seeded",225
same,Germ. (number of seeds germinated),"[1]; generation F5, 231 seeded",230
same,Emerged (number of seeds emerged),[1]; [3],791
same,Germ. (number of seeds germinated),[1]; [3],816
same,radical length (Least Square mean); radical elongation,rice,1.036
same,root growth,"Hard Red Spring wheat; 10 μM compound plus 10 μM ABA, 72 h (FIG. 9A)",restored root growth to close to control length
same,root growth,"Hard Red Spring wheat; 100 μM compound alone, 72 h",not affected
same,shoot growth,"Hard Red Spring wheat; 100 μM compound alone, 72 h",not inhibited
same,root growth,"Hard Red Spring wheat; 100 μM compound plus 10 μM ABA, 72 h (FIG. 9A)",restored root growth to close to control length
same,shoot growth,"Hard Red Spring wheat; compound plus 10 μM ABA, 72 h (FIG. 9B)",restored
